US10172868B2, “Substituted quinazolines for inhibiting kinase activity” (NeuPharma, Inc., priority 2013, dated 2019)

Legend:
EGFR (ErbB1) = EGFR (ErbB1) (Homo sapiens (Human), UniProt P00533); assay: Z'-LYTE kinase inhibition assay, EGFR; format: biochemical; settings: read-out: % inhibition against EGFR (Compound at 0.041 μM)
Procedure: Inhibitory activities of compounds against BTK, EGFR and EGFR mutants (EGFR L858R, EGFR T790M, EGFR L858R/T790M), FGFR1, FGFR2, JAK2, JAK3 and KDR were measured by Invitrogen using Z'-LYTE® Method as briefly described in the following. Test Compounds are screened in 1% DMSO (final) in the well. For 10 point titrations, 3-fold serial dilutions are conducted from the starting concentration. All ATP Solutions are diluted to a 4× working concentration in Kinase Buffer (50 mM HEPES pH 7.5, 0.01% BRIJ-35, 10 mM MgCl2, 1 mM EGTA). Peptide/Kinase Mixtures are diluted to a 2× working concentration in the appropriate Kinase Buffers as described below. (i) Peptide/Kinase Mixtures for Measurement of EGFR (ErbB1): The 2×EGFR (ErbB1)/[…] mixture is prepared in 50 mM HEPES pH 7.5, 0.01% BRIJ-35, 10 mM MgCl2. 4 mM MnCl2, 1 mM EGTA, 2 mM DTT. The final 10 μL Kinase Reaction consists of 1.1-5.25 ng EGFR (ErbB1) and 2 μM […] in 50 mM HEPES pH 7.5, 0.01% BRIJ-35, 10 mM MgCl2, 2 mM MnCl2. 1 mM EGTA, 1 mM DTT. After the 1 hour Kinase Reaction incubation, 5 μL of a 1:64 dilution of Development Reagent B is added. Reaction starts by 30-second shaking of mixture consisting of 2.5 μL 4× test compound, […] 2× kinase reaction mixture and 2.5 μL 4×ATP Solution on Bar-coded Corning, low volume NBS, black 384-well plate (Corning Cat. #3676). Then the mixture is incubated for 60-minute at room temperature for the kinase reaction, followed by addition of 5 μL of a 1:1024 dilution of development reagent A and 30-second plate shake. The mixture is then incubated for another 60-minute at room temperature for development reaction. Finally fluorescence is read by plate reader. To determine IC50 of a compound against EGFR, EGFR mutant and other kinases, a series of concentrations of the compound were tested for the inhibition.

EGFR (ErbB1) T790M L858R = EGFR (ErbB1) T790M L858R (Homo sapiens (Human), UniProt P00533, L858R/T790M); assay: Z'-LYTE kinase inhibition assay, EGFR L858R/T790M; format: biochemical; settings: for inhibition at 0.0137 µM: read-out: % inhibition against EGFR L858R/T790M (Compound at 0.0137 μM)
EGFR (ErbB1) T790M L858R, sequence (P00533 25-1210 T790M/L858R): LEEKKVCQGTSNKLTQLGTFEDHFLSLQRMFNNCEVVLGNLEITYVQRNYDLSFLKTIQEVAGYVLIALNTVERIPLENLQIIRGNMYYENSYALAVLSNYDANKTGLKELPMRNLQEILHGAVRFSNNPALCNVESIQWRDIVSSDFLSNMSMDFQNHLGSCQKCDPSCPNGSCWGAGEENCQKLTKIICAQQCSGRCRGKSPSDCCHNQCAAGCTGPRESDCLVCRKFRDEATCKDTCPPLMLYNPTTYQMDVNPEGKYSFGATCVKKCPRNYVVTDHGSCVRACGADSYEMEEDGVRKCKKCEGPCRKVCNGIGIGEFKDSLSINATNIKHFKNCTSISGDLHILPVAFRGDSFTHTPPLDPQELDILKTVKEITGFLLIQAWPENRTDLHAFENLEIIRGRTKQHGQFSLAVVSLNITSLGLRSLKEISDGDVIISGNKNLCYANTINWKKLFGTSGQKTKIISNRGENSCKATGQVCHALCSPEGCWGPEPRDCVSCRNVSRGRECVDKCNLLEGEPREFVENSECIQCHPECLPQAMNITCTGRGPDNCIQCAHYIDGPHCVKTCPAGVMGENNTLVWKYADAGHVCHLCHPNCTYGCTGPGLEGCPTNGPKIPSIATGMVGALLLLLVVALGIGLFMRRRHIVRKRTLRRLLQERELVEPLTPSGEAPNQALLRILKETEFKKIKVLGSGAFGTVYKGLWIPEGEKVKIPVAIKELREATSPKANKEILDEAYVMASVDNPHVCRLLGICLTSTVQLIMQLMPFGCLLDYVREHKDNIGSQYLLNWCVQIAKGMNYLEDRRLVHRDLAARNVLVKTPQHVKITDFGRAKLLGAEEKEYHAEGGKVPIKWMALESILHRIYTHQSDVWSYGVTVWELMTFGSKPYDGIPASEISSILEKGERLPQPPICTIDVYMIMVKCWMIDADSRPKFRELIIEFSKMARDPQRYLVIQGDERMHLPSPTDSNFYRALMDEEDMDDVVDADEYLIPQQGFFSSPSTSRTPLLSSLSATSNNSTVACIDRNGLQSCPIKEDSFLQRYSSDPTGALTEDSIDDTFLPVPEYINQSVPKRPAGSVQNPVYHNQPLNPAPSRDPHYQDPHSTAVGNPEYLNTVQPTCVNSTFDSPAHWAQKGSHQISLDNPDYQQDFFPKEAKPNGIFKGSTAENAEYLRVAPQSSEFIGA
Procedure: Inhibitory activities of compounds against BTK, EGFR and EGFR mutants (EGFR L858R, EGFR T790M, EGFR L858R/T790M), FGFR1, FGFR2, JAK2, JAK3 and KDR were measured by Invitrogen using Z'-LYTE® Method as briefly described in the following. Test Compounds are screened in 1% DMSO (final) in the well. For 10 point titrations, 3-fold serial dilutions are conducted from the starting concentration. All ATP Solutions are diluted to a 4× working concentration in Kinase Buffer (50 mM HEPES pH 7.5, 0.01% BRIJ-35, 10 mM MgCl2, 1 mM EGTA). Peptide/Kinase Mixtures are diluted to a 2× working concentration in the appropriate Kinase Buffers as described below. (iv) Peptide/Kinase Mixtures for Measurement of EGFR (ErbB1) T790M L858R: The 2×EGFR (ErbB1) […] mixture is prepared in 50 mM HEPES pH 6.5, 0.01% BRIJ-35, 10 mM MgCl2, 1 mM EGTA, 0.02% NaN3. […] After the 1 hour Kinase Reaction incubation, 5 μL of a 1:64 dilution of Development Reagent B is added. Reaction starts by 30-second shaking of mixture consisting of 2.5 μL 4× test compound, […] 2× kinase reaction mixture and 2.5 μL 4×ATP Solution on Bar-coded Corning, low volume NBS, black 384-well plate (Corning Cat. #3676). Then the mixture is incubated for 60-minute at room temperature for the kinase reaction, followed by addition of 5 μL of a 1:1024 dilution of development reagent A and 30-second plate shake. The mixture is then incubated for another 60-minute at room temperature for development reaction. Finally fluorescence is read by plate reader. To determine IC50 of a compound against EGFR, EGFR mutant and other kinases, a series of concentrations of the compound were tested for the inhibition.

H1975 cells = assay: Inhibition of cancer cell growth, MTT assay, H1975; settings: Homo sapiens, NCI-H1975, 72 h, read-out: IC50 in H1975 cells

EGFR (ErbB1), sequence (P00533 25-1210): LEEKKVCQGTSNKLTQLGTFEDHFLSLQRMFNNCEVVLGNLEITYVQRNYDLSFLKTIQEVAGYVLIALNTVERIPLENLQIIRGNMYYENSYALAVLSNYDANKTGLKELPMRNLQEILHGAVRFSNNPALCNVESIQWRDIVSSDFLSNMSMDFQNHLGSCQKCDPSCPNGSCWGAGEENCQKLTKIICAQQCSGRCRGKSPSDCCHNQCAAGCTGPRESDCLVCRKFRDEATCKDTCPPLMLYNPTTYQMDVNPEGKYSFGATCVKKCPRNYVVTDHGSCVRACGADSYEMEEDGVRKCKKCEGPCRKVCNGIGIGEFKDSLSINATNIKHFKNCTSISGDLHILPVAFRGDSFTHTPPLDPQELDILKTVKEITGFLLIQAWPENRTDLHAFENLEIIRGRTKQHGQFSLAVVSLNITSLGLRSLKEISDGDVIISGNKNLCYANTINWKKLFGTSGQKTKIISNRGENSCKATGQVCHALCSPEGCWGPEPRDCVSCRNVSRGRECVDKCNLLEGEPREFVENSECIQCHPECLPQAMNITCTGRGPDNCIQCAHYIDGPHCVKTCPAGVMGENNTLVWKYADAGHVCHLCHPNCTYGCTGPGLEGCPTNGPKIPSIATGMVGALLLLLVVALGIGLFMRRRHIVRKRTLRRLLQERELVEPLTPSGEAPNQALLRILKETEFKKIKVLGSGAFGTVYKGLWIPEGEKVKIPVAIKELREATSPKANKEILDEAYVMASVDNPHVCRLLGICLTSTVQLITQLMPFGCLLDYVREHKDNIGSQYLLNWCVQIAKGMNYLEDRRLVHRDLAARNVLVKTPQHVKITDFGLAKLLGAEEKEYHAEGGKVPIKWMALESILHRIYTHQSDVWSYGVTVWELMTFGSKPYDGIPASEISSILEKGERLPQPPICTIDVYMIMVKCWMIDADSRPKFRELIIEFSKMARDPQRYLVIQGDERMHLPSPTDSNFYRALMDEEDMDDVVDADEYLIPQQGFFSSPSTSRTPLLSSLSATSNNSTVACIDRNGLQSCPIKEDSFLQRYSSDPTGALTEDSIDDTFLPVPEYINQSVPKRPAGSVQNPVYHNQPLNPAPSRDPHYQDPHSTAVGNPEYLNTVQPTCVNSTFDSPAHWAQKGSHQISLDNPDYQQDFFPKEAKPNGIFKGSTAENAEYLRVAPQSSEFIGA

| inhibition at 0.041 µM (EGFR (ErbB1)) [%] | inhibition at 0.0137 µM (EGFR (ErbB1) T790M L858R) [%] | IC50 (EGFR (ErbB1) T790M L858R; read-out: IC50 against EGFR L858R/T790M) [nM] | IC50 (H1975 cells) [nM] | Structure (SMILES) |
| --- | --- | --- | --- | --- |
| > 50 | > 50 | < 100 | < 100 | C=CC(=O)Nc1ccc(F)c(-c2cccc3cnc(Nc4ccc(N5CCN(C)CC5)cc4)nc23)c1 [Example C067, N-(4-fluoro-3-(2-((4-(4-methylpiperazin-1-yl)phenyl)amino)quinazolin-8-yl)phenyl)acrylamide] |
| < 50 | < 50 |  | < 100 | C=CC(=O)Nc1cccc(-c2cccc3cnc(Nc4ccc(N5CCCC5=O)cc4)nc23)c1 [Example C096, N-(3-(2-((4-(2-oxopyrrolidin-1-yl)phenyl)amino)quinazolin-8-yl)phenyl)acrylamide] |
| < 50 | < 50 |  | > 500 | C=CC(=O)Nc1cccc(-c2cccc3cnc(Nc4ccc(N5CCN(C)CC5)cc4C(=O)OC)nc23)c1 [Example C104, methyl 2-((8-(3-acrylamidophenyl)quinazolin-2-yl)amino)-5-(4-methylpiperazin-1-yl)benzoate] |
| > 50 | < 50 |  | > 500 | CCC(=O)Nc1cccc(-c2c(C)ccc3cnc(Nc4ccc(N5CCN(C)CC5)cc4)nc23)c1 [Example C042, N-(3-(7-methyl-2-((4-(4-methylpiperazin-1-yl)phenyl)amino)quinazolin-8-yl)phenyl)propionamide] |
| < 50 | < 50 |  | < 100 | C=CC(=O)Nc1cccc(-c2cccc3cnc(Nc4ccc(N5CCN(CC(C)(C)O)CC5)cc4F)nc23)c1 [Example C149, N-(3-(2-((2-fluoro-4-(4-(2-hydroxy-2-methylpropyl)piperazin-1-yl)phenyl)amino)quinazolin-8-yl)phenyl)acrylamide] |
| < 50 | < 50 |  | > 500 | C=CC(=O)N1CCN(c2cccc3cnc(Nc4ccc(N5CCN(C)CC5)cc4)nc23)CC1 [Example C070, 1-(4-(2-((4-(4-methylpiperazin-1-yl)phenyl)amino)quinazolin-8-yl)piperazin-1-yl)prop-2-en-1-one] |
| < 50 | < 50 |  | > 500 | C=CC(=O)Nc1ccc(C#N)c(-c2cccc3cnc(Nc4ccc(N5CCN(C)CC5)cc4)nc23)c1 [Example C100, N-(4-cyano-3-(2-((4-(4-methylpiperazin-1-yl)phenyl)amino)quinazolin-8-yl)phenyl)acrylamide] |
| < 50 | < 50 |  | > 500 | C=CC(=O)Nc1cccc(-c2cccc3cnc(Nc4ccc(NCCO)cc4)nc23)c1 [Example C066, N-(3-(2-((4-((2-hydroxyethyl)amino)phenyl)amino)quinazolin-8-yl)phenyl)acrylamide] |
| > 50 | > 50 |  | 100 to 500 | CN(C)C/C=C/C(=O)Nc1cccc(-c2cccc3cnc(Nc4ccc(N5CCN(C)CC5)cc4)nc23)c1F [Example C062, (E)-4-(dimethylamino)-N-(2-fluoro-3-(2-((4-(4-methylpiperazin-1-yl)phenyl)amino)quinazolin-8-yl)phenyl)but-2-enamide] |
| < 50 | < 50 |  | 100 to 500 | C=CC(=O)Nc1cccc(-c2cccc3cnc(Nc4ccc(N5CCNC5=O)cc4)nc23)c1 [Example C097, N-(3-(2-((4-(2-oxoimidazolidin-1-yl)phenyl)amino)quinazolin-8-yl)phenyl)acrylamide] |
| < 50 | > 50 |  | 100 to 500 | C=CC(=O)Nc1cccc(-c2cccc3cnc(Nc4ccc(N5CCN(C)C(C(N)=O)C5)cc4)nc23)c1 (stereo not shown) [Example C093, 4-(4-((8-(3-acrylamidophenyl)quinazolin-2-yl)amino)phenyl)-1-methylpiperazine-2-carboxamide] |
| < 50 | < 50 |  | 100 to 500 | C=CC(=O)Nc1cc(-c2cccc3cnc(Nc4ccc(N5CCN(C)CC5)cc4)nc23)n[nH]1 [Example C132, N-(3-(2-((4-(4-methylpiperazin-1-yl)phenyl)amino)quinazolin-8-yl)-1H-pyrazol-5-yl)acrylamide] |
| < 50 | < 50 |  | 100 to 500 | C=CC(=O)Nc1cccc(-c2cccc3cnc(Nc4ccc(N5CCN(S(C)(=O)=O)CC5)cc4)nc23)c1 [Example C092, N-(3-(2-((4-(4-(methylsulfonyl)piperazin-1-yl)phenyl)amino)quinazolin-8-yl)phenyl)acrylamide] |
| < 50 | > 50 |  | 100 to 500 | C=CC(=O)Nc1cccc(-c2cccc3cnc(Nc4cnc(N5CCN(C)CC5)c(C#N)c4)nc23)c1 [Example C086, N-(3-(2-((5-cyano-6-(4-methylpiperazin-1-yl)pyridin-3-yl)amino)quinazolin-8-yl)phenyl)acrylamide] |
| < 50 | < 50 |  | 100 to 500 | C=CC(=O)Nc1cccc(-c2cccc3cnc(Nc4ccc(-n5ccnc5)cc4)nc23)c1 [Example C094, N-(3-(2-((4-(1H-imidazol-1-yl)phenyl)amino)quinazolin-8-yl)phenyl)acrylamide] |
| < 50 | < 50 |  | < 100 | C=CC(=O)Nc1cccc(-c2cccc3cnc(Nc4ccc(N5CCN(CC(N)=O)CC5)cc4)nc23)c1 [Example C150, N-(3-(2-((4-(4-(2-amino-2-oxoethyl)piperazin-1-yl)phenyl)amino)quinazolin-8-yl)phenyl)acrylamide] |
| < 50 | < 50 |  | < 100 | C=CC(=O)Nc1cccc(-c2cccc3cnc(Nc4ccc(O[C@H]5CCN(C(C)=O)C5)cc4)nc23)c1 [Example C131, (S)-N-(3-(2-((4-((1-acetylpyrrolidin-3-yl)oxy)phenyl)amino)quinazolin-8-yl)phenyl)acrylamide] |
| < 50 | > 50 |  | 100 to 500 | C=CC(=O)Nc1cccc(-c2cccc3cnc(Nc4ccc(N5CCN(C(=O)NC)CC5)cc4)nc23)c1 [Example C083, 4-(4-((8-(3-acrylamidophenyl)quinazolin-2-yl)amino)phenyl)-N-methylpiperazine-1-carboxamide] |
| < 50 | > 50 |  | < 100 | C=CC(=O)Nc1cccc(-c2cccc3cnc(Nc4ccc(N5CCN(CCOC)CC5)c(F)c4)nc23)c1 [Example C155, N-(3-(2-((3-fluoro-4-(4-(2-methoxyethyl)piperazin-1-yl)phenyl)amino)quinazolin-8-yl)phenyl)acrylamide] |
| < 50 | > 50 |  | 100 to 500 | CN(C)C/C=C/C(=O)Nc1cccc(-c2cccc3cnc(Nc4ccc(N5CCN(C)CC5)cc4)nc23)c1 [Example C052, (E)-4-(dimethylamino)-N-(3-(2-((4-(4-methylpiperazin-1-yl)phenyl)amino)quinazolin-8-yl)phenyl)but-2-enamide] |
